Measured values published in patent publication US12458614B2, “Therapeutic agents for improved mobility and cognitive function and for treating neurodegenerative diseases and lysosomal storage disorders” (priority 2017, dated 2025).

Legend:
Npc1−/− mice = test: Weight data; type: in vivo, mouse; settings: 0.1 g/kg from weaning
Description: (§1) Separate groups of Npc1^−/− and Npc1^+/+ mice were left untreated, as controls. Animals were weighed twice a week. Weights were averaged (mean) across all mice in each group and compared.

wild-type (Npc1+/+) mice = test: Weight data; type: in vivo, mouse; settings: 0.1 g/kg from weaning
Description: as §1

Npc1−/− mouse = test: Lifespan; type: in vivo; settings: 0.1 g/kg from 3 weeks of age
Description: Separate groups of Npc1^−/− and Npc1^+/+ mice were left untreated, as controls.

[1] = tested on: Niemann-Pick A (NPA) patient fibroblasts; test: Lysosomal volume via LysoTracker; type: cell-based, human; settings: 1 mM, 6 days
[2] = tested on: Mucopolysaccharidosis Type IIIB (MPS IIIB) patient fibroblasts; test: Lysosomal volume via LysoTracker; type: cell-based, human; settings: 1 mM, 6 days
[3] = tested on: Sandhoff disease model, Hexb−/− mouse; test: Lifespan of Sandhoff mouse; type: in vivo; settings: 0.1 g/kg from 3 weeks of age, p<0.05 vs untreated
Protocol: This study made use of a mouse model of Sandhoff disease, the Hexb^−/− mouse, as descrbed in Jeyakumar et al. (Jeyakumar, M. et al. (1999) Proc. Natl. Acad. Sci. USA 96: 6388-6393).
In FIG. 7A, acetyl-leucine-treated mice were treated with 0.1 g/kg acetyl-leucine from 3 weeks of age. The asterisks (*) indicates a p-value of <0.05 vs untreated Sandhoff mice. Data is average of n=6 mice per group. Without treatment, the median survival time of Sandhoff mice was 112 days. Treatment with acetyl-leucine (0.1 g/kg body weight since 3 weeks of age) increased the median lifespan to 120 days.

[4] = tested on: patient with GM1 Gangliosidosis; test: Case study, GM1 Gangliosidosis; type: in vivo, human; settings: after one month, 1.5 g then 3 g per day
Description: For example, to evaluate overall neurological status, mDRS, a four-domain scale (ambulation, manipulation, language and swallowing), may be applied. Cerebellar function may be evaluated using SARA, an eight-item clinical rating scale (gait, stance, sitting, speech, fine motor function and taxis; range 0-40, where 0 is the best neurological status and 40 the worst), and SCAFI, comprising the 8-m-Walking-Time (8MW; performed by having patients walking twice as quickly as possible from one line to another excluding turning), 9-Hole-Peg-Test (9HPT) and the number of “PATA” repetitions over 10 s. Subjective impairment and quality of life may be evaluated using the EQ-5D-5L questionnaire and VAS. To assess ocular motor function, 3-dimensional videooculography (EyeSeeCam) may be used to measure the peak velocity of saccades, gain of smooth pursuit, peak slow phase velocity of gaze-evoked nystagmus (gaze-holding function), peak slow phase velocity of optokinetic nystagmus, and gain of horizontal vestibulo-ocular reflex. To evaluate the cognitive state, WAIS-R or WISC-IV, and MoCA, assessing different cognitive domains, including attention and concentration, executive functions, memory, language, visuoconstructional skills, conceptual thinking, calculations, and orientation with a maximum of 30 points and a cut-off score of 26, may be used. […]

[5] = tested on: patient with corticobasal syndrome; test: Case study, corticobasal syndrome; type: in vivo, human
Protocol: Gait analysis was performed before treatment commenced.

[6] = tested on: patient with Lewy Body dementia; test: Case study, Lewy Body dementia; type: in vivo, human; settings: Lewy Body dementia patient
Protocol: The patient started taking acetyl-leucine (3 g/day for one week; 5 g/day thereafter) and was evaluated after four weeks. […] Medication was reduced to 3 g/day, and the patient was instructed to stop medication about two weeks later.

[7] = tested on: person with balance disorder/senile gait disorder; test: Case study Example 23; type: in vivo, human
[8] = tested on: person with postural imbalance and cognitive decline; test: Case study Example 27; type: in vivo, human
Protocol: The patient was examined clinically by means of the following clinical assessments: maximal distance to walk; timed Up and Go test; Scale for the Assessment and Rating of Ataxia (SARA). The patient was also examined by means of posturography after 1 month of the therapy with Tanganil® 500 mg (2 g upon waking, 1.5 g prior to lunch and 1.5 g prior to the evening meal). Medication was taken 30 minutes prior to the meal, or at least 2 hours after the meal. During treatment with Tanganil® (2 g upon waking, 1.5 g prior to lunch and 1.5 g prior to the evening meal) for 1-month, the following assessments were made: […]

[9] = two days after suspension of treatment

For `CC(=O)NC(CC(C)C)C(=O)O` (racemic) [acetyl-DL-leucine], the “Delay of weight loss symptoms compared to the untreated group” value (Npc1−/− mice) was “two”, the “Effect on weight gain” value (wild-type (Npc1+/+) mice) was “no significant effect” and the Lifespan (Npc1−/− mouse) was “small but statistically significant increase in lifespan”. The “LysoTracker fluorescence vs untreated disease fibroblasts” value [1] was “statistically significant reduction in LysoTracker fluorescence toward control level”, the “LysoTracker fluorescence vs untreated disease fibroblasts” value [2] was “statistically significant reduction in LysoTracker fluorescence toward control level” and the “Lifespan of the Sandhoff mouse” value [3] was “statistically significant increase in the lifespan”. For the same compound, the Clinical re-examination [4] was “stable general condition, increased gait (more fluent), and stable stance in natural position”, the Frequency of falls ([5]; after 20 days) was “significant reduction in the frequency of falls” and the “Gait analysis parameters (summary)” value ([5]; after 20 days) was “objective improvement in gait analysis parameters”. The Dizziness symptoms ([5]; after 20 days, 3 g then 5 g per day) was “improvement of dizziness symptoms”, the Dizziness after suspension [5, 9] was “increase of dizziness symptoms” and the “Patient report on treatment” value ([6]; after four weeks, 3 g/day then 5 g/day) was “increased fatigue and a deterioration of balance and speech”. For the same compound, the “Patient report on decreased dose” value ([6]; reduced to 3 g/day) was “did not report improvement of symptomatology with the decreased dose”, the Frequency of falls ([7]; Day 14) was “significant reduction in the frequency of falls” and the Hypokinetic-rigid syndrome ([7]; Day 14) was “No change of hypokinetic-rigid syndrome”. The Dizziness symptoms ([7]; Day 14, 3 then 5 gram per day) was “improvement of dizziness symptoms”, the Dizziness after suspension [7, 9] was “increase of dizziness symptoms” and the Subjective measurements ([8]; 1 month on medication) was “more energy, was more agile and interactive”. For the same compound, the SARA ([8]; 1 month on medication, baseline 6.5/40) was 2/40, the “Mean timed 8-meter-walking test” value ([8]; 1 month on medication, baseline 6.5 sec) was 4.4 s and the Stance up-and-go test ([8]; 1 month on medication, baseline 25.4 sec) was 21.2 s. For the same compound, the “Maximal distance to walk” value ([8]; 1 month, 2 g/1.5 g/1.5 g per day, baseline 1 km) was 1.5 km, the Side effects ([8]; 2 g/1.5 g/1.5 g per day dosage regimen) was “Sleepiness” and the Frequency of falls ([8]; lower dosage 1 g/1 g/1 g for over 4 months) was 0-1 /month. For the same compound, the Falls ([8]; therapy period of 1 month) was “did not record any falls”.
